Series [1] has as its system Mmp3, Mmp13, and COX2. Kind of series: Mmp3, Mmp13 and COX2 expression in IL-1β-treated mouse FLS. It is filed as cell-based. The procedure: Anti-chemokine and anti-inflammatory effects of 3′-sialyllactose were examined. First, purity of mouse FLS was examined by FACS analysis, and then no effects of 3′-sialyllactose on FLS proliferation and cytotoxicity were examined by WST-1 assay (see FIGS. 14A-A to 14A-C). […] Therefore, in a subsequent in vitro experiment, 3′-sialyllactose was used at a concentration of 0 μM to 250 μM. In order to examine effects of 3′-sialyllactose on IL-1β-, IL-6-, IL-17-, and TNF-α-induced chemokines (e.g., CCL2, CCL5, CCL7, CXCL1, CXCL2, and CXCL5), pro-inflammatory cytokines (IL-1, IL-6, and TNF-α), and COX2 expression, IL-1β-, IL-6-, IL-17-, and TNF-α-stimulated human RA-FLS and mouse FLS were treated with 3′-sialyllactose (100 μM or 250 μM) for 24 hrs.
FIGS. 14A-A and 14A-B show FACS results of analyzing marker expression on the FLS surfaces in a mouse according to passages (FIG. 14A-A: CD90.2; FIG. 14A-B: CD14), and a graph of cytotoxicity confirmed by WST-1 assay (FIG. 14A-C), and FIG. 14B is a graph showing Mmp3, Mmp13, and COX2 expression levels according to lactose, sialic acid, and 3′-sialyllactose in IL-1β-treated mouse FLS.

Series [2] has as its system chondrocytes. Kind of series: Cytotoxicity of sialyllactose on chondrocytes (EZ-Cytox cell viability assay). It counts as cell-based, mouse. To be noted: 0 μM, 10 μM, 50 μM, 100 μM, or 250 μM, 24 hrs. The protocol:
Chondrocytes were obtained from cartilage tissues derived from femoral heads, femoral condyles, and tibial plateaus of normal mouse at 5 days after birth. The obtained chondrocytes were cultured in DMEM medium (Gibco, USA) containing 10% (v/v) fetal bovine serum (Gibco, USA), 50 μg/ml of streptomycin (Sigma-Aldrich, USA) and 50 unit/ml of penicillin (Sigma-Aldrich, USA).
In order to confirm that 3′- or 6′-sialyllactose has no cytotoxicity on chondrocytes, chondrocytes were cultured in a 96-well culture plate at a density of 9×10^3 cells/well, and then treated with 3′- or 6′-sialyllactose (Genechem Inc., Daejeon, Korea) at a concentration of 0 μM, 10 μM, 50 μM, 100 μM, or 250 μM, followed by incubation in a 5% CO2 incubator at 37° C. for 24 hrs. Cytotoxicity of 3′- or 6′-sialyllactose on chondrocytes was confirmed by measuring absorbance at 450 nm using an EZ-Cytox Cell viability assay kit (DoGen, Korea).

Series [3] relates to type II collagen (Col2a1). As to the kind of experiment: Col2a1 expression in chondrocytes (qRT-PCR, Western blotting). It is filed as cell-based, mouse. The procedure:
In order to examine effects of 3′- or 6′-sialyllactose on cartilage formation and regeneration, the chondrocytes obtained in Example 1 were incubated for 36 hrs and then treated with 3′- or 6′-sialyllactose at a concentration of 0 μM, 10 μM, 50 μM, 100 μM, or 250 μM, followed by further incubation for 36 hrs.
Next, in order to perform qRT-PCR, RNA was extracted from the chondrocytes using a TRI reagent (Molecular Research Center Inc.), and cDNA obtained by reverse transcription of RNA was amplified by PCR using primers of SEQ ID NOS: 1 and 2 under condition of annealing temperature of 55° C. to examine expression of type II collagen (Col2a1, 173 bp) which is essential for cartilage formation. As a control group, Gapdh (450 bp, annealing temperature of 58° C.) was examined by using primers of SEQ ID NOS: 3 and 4.
Further, a whole cell lysate was extracted from the chondrocytes using a lysis buffer (150 mM NaCl, 1% NP-40, 50 mM Tris, 5 mM NaF) containing protease and phosphatase inhibitor cocktails (Roche), and Col2a1 expression in the cells was examined. Western blotting was performed using anti-Col2a1 antibody (Millipore) and anti-Erk antibody (Cell signaling), and thickness and concentration of Western blot bands were measured by a computer program and relative values thereof were determined by densitometry (FIGS. 4A and 4B).
IL-1β is a representative inflammatory cytokine inhibiting Col2a1 expression in chondrocytes. Chondrocytes were incubated for 36 hrs, and then treated with 5 ng/ml of IL-1β (GeneScript, USA) for 24 hrs to confirm that Col2a1 expression was decreased by IL-1β.
In order to examine whether the decreased Col2a1 expression is increased again in chondrocytes by 3′- or 6′-sialyllactose, qRT-PCR and Western blotting were performed in the same manner as in Example 2-1.
For orientation: Quantitative PCR measures a nucleic acid by following its amplification.

Series [4] deals with Sox-9. Kind of series: Sox-9 reporter gene luciferase activity in chondrocytes. It counts as cell-based, mouse. To be noted: co-treated with 5 ng/ml IL-1β and 0 to 250 μM for 24 hrs. The procedure:
A Sox-9 reporter gene was prepared by inserting 48-bp Sox9 binding site in the first intron of human Col2a1 gene into the upstream of SV40 promoter in pGL3 vector (Zhou G et al., J Biol Chem 1998, 12, 14989-97).
1 μg of the Sox-9 reporter gene was transfected into chondrocytes using lipofectamine 2000 (Invitrogen) for 3 hrs. The transfected cells were co-treated with 5 ng/ml interleukin 1 beta (IL-1β) and 0 μM, 10 μM, 50 μM, 100 μM, or 250 μM of 3′- or 6′-sialyllactose for 24 hrs, and then chondrocytes were recovered to examine Sox-9 activity by luciferase activity.

Series [5] relates to Mmp3. Kind of series: Mmp3 expression in IL-1β-treated chondrocytes (qRT-PCR, Western blotting). It is filed as cell-based, mouse. The settings on record: 5 ng/ml of IL-1β, 0 to 250 μM, 24 hrs; concentration-dependent. The procedure: (§1) IL-1β is a representative inflammatory cytokine that decreases Col2a1 essential for cartilage formation in chondrocytes and also promotes articular inflammation and cartilage tissue destruction. Chondrocytes were treated with 5 ng/ml of IL-1β by time, and then qRT-PCR was performed using conditions and primers of the following Table 1 according to the method of Example 2-1 to examine inhibition of Mmp3 and Mmp13 expression.
(§2) Secretory proteins such as Mmp3 and Mmp13 were allowed to react at 0° C. for 20 min after reacting 900 μl of serum-free medium (conditioned medium) with 100 μl of trichloroacetic acid (TCA). Next, a supernatant was discarded by centrifugation at 12,000 rpm and 4° C. for 10 min, and then reacted with 500 μl of 100% cold acetone at […] for 1 hr. The sample reacting with 100% acetone was centrifuged to discard a supernatant, and proteins were finally precipitated and detected. Western blotting was performed using anti-Mmp3 antibody (Abcam) and anti-Mmp13 antibody (Abcam), and thickness and concentration of Western blot bands were measured by a computer program and relative values thereof were determined by densitometry.

The test system of series [6] is Mmp13. As to the kind of experiment: Mmp13 expression in IL-1β-treated chondrocytes (qRT-PCR, Western blotting). It is filed as cell-based, mouse. To be noted: 5 ng/ml of IL-1β, 0 to 250 μM, 24 hrs; concentration-dependent. The procedure: as §1, §2

For `OC[C@H]1O[C@@H](O[C@H]2[C@H](O)[C@@H](O)C(O)O[C@@H]2CO)[C@H](O)[C@@H](O)[C@H]1O` (stereo partly shown) [lactose], the “Mmp3, Mmp13, and COX2 expression levels, control groups for 3′-sialyllactose” value in series [1] is listed as “no significant difference”.

With `CC(=O)N[C@H]1C([C@H](O)[C@H](O)CO)O[C@@](OCC2O[C@@H](O[C@@H]3C(CO)OC(O)C(O)[C@H]3O)C(O)[C@@H](O)[C@H]2O)(C(=O)[O-])C[C@H]1O.[Na+]` (stereo partly shown) [6′-sialyllactose], the cytotoxicity on chondrocytes entry in series [2] was “did not show cytotoxicity”. Also, in series [3] (0 to 250 μM, 36 hrs), the “Col2a1 expression in chondrocytes” value is on record as “increased”. Moreover, the “Col2a1 expression suppressed by IL-1β in chondrocytes” value in series [3] (5 ng/ml of IL-1β) is “gradually increased”. The “Sox-9 activity decreased by IL-1β” value in series [4] is recorded as “restored”. Moreover, the “Mmp3 expression increased by IL-1β in chondrocytes” value in series [5] is reported as “decreased”. In addition, in series [6], the “Mmp13 expression increased by IL-1β in chondrocytes” value is reported as “decreased”.

The values above are taken from US11672815B2, “Composition for inhibiting immune cell proliferation comprising sialyllactose or derivative thereof and method thereof” (CUPIONE CO., LTD., priority 2017, dated 2023).
